Experimental data: patent US20090264384A1, “INDOLE, BENZIMIDAZOLE, AND BENZOLACTAM BORONIC ACID COMPOUNDS, ANALOGS THEREOF AND METHODS OF USE THEREOF” (Nuada, Inc., priority 2004, published 2009)
Blank lines part the entries; values can stand above or below the molecule they belong to.

Key:
Phosphodiesterase 1 = Phosphodiesterase 1 enzyme assay; type: biochemical, bovine; settings: reference compound, Phosphodiesterase 1
Phosphodiesterase 5(h) = target: T1, Phosphodiesterase 5(h) (Homo sapiens, UniProt O76074); assay: Phosphodiesterase 5(h) enzyme assay; type: biochemical; settings: Hill coefficient, Phosphodiesterase 5(h)
T1 construct: human platelets; from tissue; host or cells: human platelets

Cytochrome P450 (CYP) [1] = target: Cytochrome P450 (CYP) (Homo sapiens, UniProt P05177)
Phosphodiesterase 3(h) = Phosphodiesterase 3(h) (Homo sapiens, UniProt Q14432); assay: Phosphodiesterase 3(h) enzyme assay; type: biochemical; settings: Hill coefficient, Phosphodiesterase 3(h)
Acetylcholinesterase(h) = target: T2, Acetylcholinesterase(h) (Homo sapiens, UniProt P22303); assay: Acetylcholinesterase(h) enzyme assay; type: biochemical; settings: Hill coefficient, Acetylcholinesterase(h)
T2 construct: host or cells: HEK-293 cells

α1 (non-selective) = α1 (non-selective) binding assay; parameters: species or system rat
Cytochrome P450 (CYP) [2] = target: Cytochrome P450 (CYP) (Homo sapiens, UniProt P10635); assay: ADME-Tox: In vitro Metabolism (Cytochrome P450, fluorogenic substrates BFC, CEC, MFC); settings: Hill coefficient, CYP2D6 Inhibition (7-MFC substrate)
Cytochrome P450 (CYP) [3] = target: Cytochrome P450 (CYP) (Homo sapiens, UniProt P11712); assay: as above; settings: Hill coefficient, CYP2C9 Inhibition (7-MFC substrate)
[4] = target: Catechol-O-methyl transferase; assay: Catechol-O-methyl transferase enzyme assay; type: biochemical, porcine; settings: reference compound, Catechol-O-methyl transferase
[5] = system: chronic colitis provoked by trinitrobenzene sulphonic acid (TNBS); assay: Rat model of chronic colitis provoked by TNBS over 14 days, treatment from Day 1; type: in vivo; settings: 3 mg/kg i.v. on Day 1 and Day 7
Description: In the chronic model of colitis, assessment of the colonic inflammation is made 14 days or longer, after the intracolonic challenge with TNBS (Boughton-Smith et al, 1988a, 1988b; Wallace et al, 1989; Rachmilewitz et al, 1989; Wallace and Keenan, 1990; Ameho et al, 1987; Sans et al, 1999; Sun et al, 2001; Maric et al, 2003; Moreels et al, 2004; Gonzalez et al, 2004). This model allows treatment with experimental agents to commence following the establishment of the colonic injury, typically 24 hours after the TNBS challenge (Galvez et al, 2000, Villegas, 2003, Gonzalez et al, 2004). The model should therefore identify the ability of the experimental compounds to accelerate the diminution of the inflammatory response and to promote healing of the colonic lesions. This model thus has relevance additional to the acute model, as the clinical correlate is the therapeutic intervention in patients with existing IBD not in remission or with flare-up, to reduce the crisis. This contrasts with the acute TNBS model where the compounds are administered one or two days prior to challenge, the clinical correlate being the use of prophylactic therapy to prevent flare-up and maintain remission in IBD patients.
In this current study, the low intracolonic challenge concentration of TNBS used in the acute studies was also used for the chronic study over a 14 day period. This concentration and timing was based on the findings from pilot studies where a range of concentrations of TNBS and treatment conditions were evaluated over a 14 day period. […].
The methods and protocol used were substantially similar to those in Example 39-40, with some differences described below.
TNBS Challenge. Male Wistar rats (average body weight, 210 g) were randomised into groups before commencement of the study. In all groups, including the non-challenged and non-treated absolute control group, food was withdrawn for 12 h before TNBS administration (i.e. overnight on Day −1), but the rats were allowed free access to drinking water.
On the morning of the day of challenge (Day 0, between 9.00 and 1 1.00 a.m.), the rats were transiently anaesthetised with ether and the TNBS solution (10 mg in 0.25 ml of 50% ethanol) was instilled approximately 6-8 cm into the colon using a soft plastic catheter inserted in the rat rectum. The rats were allowed to recover with free access to food and drinking water. At the end of the experiment, on the morning of Day 14, between 9.00 and 11.00), the colon was dissected, and the distal 8 cm photographed and immediately processed or stored appropriately for subsequent analyses.
The following primary parameters were measured in the study: macroscopic scoring of distal 8 cm of colon; myeloperoxidase levels in segments of distal 8 cm of colon; TNF-α levels in segments of distal 8 cm of colon.
In addition, the weight of the standard colonic segment was assessed as an indirect and non-specific marker of oedema. The body weight of the animals was also determined each evening of the study, starting on Day-1, and also on the morning of Day 14. The data is shown graphically as the % change from the weight on Day-1, prior to challenge.
Treatments. The TNBS challenged groups for study were: (a) Vehicle control 0.5% carboxy methyl cellulose (CMC) p.o., twice daily from Day; (b) CCI-7506 25 mg/kg, p.o., twice daily from Day 1 (50 mg/kg/day total); (c) CCI-7506 50 mg/kg, p.o., twice daily from Day 1 (100 mg/kg/day total); (d) CCI-7507 12.5 mg/kg, p.o., twice daily from Day 1 (25 mg/kg/day total); (e) CCI-7507 25 mg/kg, p.o., twice daily from Day 1(50 mg/kg/day total); […]; (g) Infliximab 3 mg/kg, single slow i.v. injection, on Day 1 and Day7.
The experimental compounds that were administered orally were given twice a day from Day 1, i.e. 24 h following TNBS administration, for the remainder of the 14 day experimental period. Infliximab was administered by slow i.v. injection of Day 1 and on Day 7. […]

TNBS colitis = settings: single intravenous dose pre-treatment; 8 days after TNBS challenge; cited from earlier work

T2 sequence (P22303 32-614): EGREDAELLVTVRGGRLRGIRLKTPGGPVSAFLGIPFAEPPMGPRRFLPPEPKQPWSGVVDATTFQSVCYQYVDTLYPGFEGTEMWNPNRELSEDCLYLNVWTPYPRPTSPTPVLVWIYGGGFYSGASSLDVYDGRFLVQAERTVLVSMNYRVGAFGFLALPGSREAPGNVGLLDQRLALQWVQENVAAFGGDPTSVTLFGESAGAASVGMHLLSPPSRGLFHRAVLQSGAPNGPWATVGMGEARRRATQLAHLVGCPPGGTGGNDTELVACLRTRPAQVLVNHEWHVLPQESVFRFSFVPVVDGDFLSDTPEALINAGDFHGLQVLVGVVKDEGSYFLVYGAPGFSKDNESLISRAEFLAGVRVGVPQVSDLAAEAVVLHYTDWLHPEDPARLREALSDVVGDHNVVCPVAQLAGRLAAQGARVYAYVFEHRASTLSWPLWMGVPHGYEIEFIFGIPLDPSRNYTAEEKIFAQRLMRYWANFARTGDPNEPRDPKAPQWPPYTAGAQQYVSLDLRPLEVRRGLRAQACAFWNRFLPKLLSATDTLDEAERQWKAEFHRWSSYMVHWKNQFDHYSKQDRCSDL
Chain of Cytochrome P450 (CYP) (Homo sapiens, UniProt P11712) (P11712 whole entry): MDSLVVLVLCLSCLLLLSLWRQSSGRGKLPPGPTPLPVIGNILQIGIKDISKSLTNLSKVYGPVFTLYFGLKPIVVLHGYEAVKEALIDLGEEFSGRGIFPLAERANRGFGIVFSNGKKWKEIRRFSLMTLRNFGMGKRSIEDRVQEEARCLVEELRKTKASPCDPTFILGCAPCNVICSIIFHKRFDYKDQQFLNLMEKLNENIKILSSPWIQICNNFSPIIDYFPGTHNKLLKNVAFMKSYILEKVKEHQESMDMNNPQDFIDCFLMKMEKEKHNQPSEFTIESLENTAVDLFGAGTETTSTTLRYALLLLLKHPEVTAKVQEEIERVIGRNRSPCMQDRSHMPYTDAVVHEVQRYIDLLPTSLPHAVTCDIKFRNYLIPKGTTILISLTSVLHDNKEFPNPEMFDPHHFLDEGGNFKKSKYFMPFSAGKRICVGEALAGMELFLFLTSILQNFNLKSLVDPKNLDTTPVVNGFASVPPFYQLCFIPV
Chain of Cytochrome P450 (CYP) (Homo sapiens, UniProt P10635) (P10635 whole entry): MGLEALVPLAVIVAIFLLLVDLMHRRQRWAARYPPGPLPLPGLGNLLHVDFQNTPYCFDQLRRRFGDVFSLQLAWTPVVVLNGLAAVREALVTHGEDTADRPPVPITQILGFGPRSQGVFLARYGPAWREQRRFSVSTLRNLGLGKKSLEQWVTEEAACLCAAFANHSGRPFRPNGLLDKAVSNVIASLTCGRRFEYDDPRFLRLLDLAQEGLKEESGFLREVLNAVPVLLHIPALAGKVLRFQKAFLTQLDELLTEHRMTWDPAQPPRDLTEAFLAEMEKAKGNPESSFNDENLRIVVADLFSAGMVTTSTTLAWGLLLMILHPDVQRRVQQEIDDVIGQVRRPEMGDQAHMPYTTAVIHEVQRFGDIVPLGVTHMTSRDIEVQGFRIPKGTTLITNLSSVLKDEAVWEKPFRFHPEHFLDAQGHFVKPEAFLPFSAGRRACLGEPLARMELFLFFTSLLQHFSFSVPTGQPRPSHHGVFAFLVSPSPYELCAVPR
Chain of Phosphodiesterase 3(h) (Q14432 674-1093 limits assumed): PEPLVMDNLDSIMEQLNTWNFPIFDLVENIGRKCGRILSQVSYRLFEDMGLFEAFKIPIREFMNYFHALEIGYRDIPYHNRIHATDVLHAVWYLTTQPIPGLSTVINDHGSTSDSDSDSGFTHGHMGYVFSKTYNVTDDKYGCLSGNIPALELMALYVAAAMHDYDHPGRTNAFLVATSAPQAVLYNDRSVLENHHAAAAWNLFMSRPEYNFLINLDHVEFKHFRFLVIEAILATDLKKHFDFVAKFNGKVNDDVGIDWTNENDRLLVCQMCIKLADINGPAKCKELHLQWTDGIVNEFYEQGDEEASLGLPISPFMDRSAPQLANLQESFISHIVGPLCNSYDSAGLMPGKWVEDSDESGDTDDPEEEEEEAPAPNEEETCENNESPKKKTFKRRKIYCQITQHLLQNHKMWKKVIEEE
Chain of Cytochrome P450 (CYP) (Homo sapiens, UniProt P05177) (P05177 whole entry): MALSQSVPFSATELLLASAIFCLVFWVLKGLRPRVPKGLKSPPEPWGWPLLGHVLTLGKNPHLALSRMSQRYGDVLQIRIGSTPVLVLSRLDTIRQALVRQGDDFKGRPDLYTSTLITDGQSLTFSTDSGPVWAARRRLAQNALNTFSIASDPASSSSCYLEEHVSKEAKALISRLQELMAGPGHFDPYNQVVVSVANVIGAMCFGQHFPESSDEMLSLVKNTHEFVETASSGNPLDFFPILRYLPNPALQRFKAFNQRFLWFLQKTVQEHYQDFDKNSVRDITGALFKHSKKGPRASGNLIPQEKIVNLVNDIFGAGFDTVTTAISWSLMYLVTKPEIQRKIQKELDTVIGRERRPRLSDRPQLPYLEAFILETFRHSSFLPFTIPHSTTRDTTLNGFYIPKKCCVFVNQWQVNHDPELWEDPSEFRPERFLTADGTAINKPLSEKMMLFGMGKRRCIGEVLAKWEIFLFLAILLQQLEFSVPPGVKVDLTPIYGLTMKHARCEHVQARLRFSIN
Chain of Catechol-O-methyl transferase (Q99028 whole entry): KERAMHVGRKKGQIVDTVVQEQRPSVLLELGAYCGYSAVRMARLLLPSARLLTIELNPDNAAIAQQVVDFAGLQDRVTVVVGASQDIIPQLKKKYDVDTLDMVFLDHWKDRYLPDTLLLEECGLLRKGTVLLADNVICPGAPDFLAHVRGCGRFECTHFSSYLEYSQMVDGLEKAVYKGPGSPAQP

Molecule: COc1nc2c([nH]1)c(=O)n(C)c(=O)n2CC(C)C [Example 8-methoxy-IBMX]
IC50 (Phosphodiesterase 1): 2400 nM

nH (Phosphodiesterase 5(h)): 1.5
Molecule: OCCN(CCO)c1nc(N2CCCCC2)c2nc(N(CCO)CCO)nc(N3CCCCC3)c2n1 [dipyridamole]

nH (Cytochrome P450 (CYP) [1]): 0.6
Molecule: Cc1nc2c([nH]1)c(=O)n(C)c(=O)n2Cc1ccco1 [furafylline]

nH (Phosphodiesterase 3(h)): 0.8
Molecule: Cc1[nH]c(=O)c(C#N)cc1-c1ccncc1 [milrinone]

Molecule: CN(C)C(=O)Oc1cccc([N+](C)(C)C)c1 [neostigmine]
nH (Acetylcholinesterase(h)): 1.5

nH (α1 (non-selective)): 1.6
Molecule: COc1cc2nc(N3CCN(C(=O)c4ccco4)CC3)nc(N)c2cc1OC [prazosin, reference compound]

Molecule: C=C[C@H]1C[N@@]2CC[C@H]1C[C@@H]2[C@@H](O)c1ccnc2ccc(OC)cc12 [quinidine]
nH (Cytochrome P450 (CYP) [2]): 0.9

Molecule: Nc1ccc(S(=O)(=O)Nc2ccnn2-c2ccccc2)cc1 [sulfaphenazole]
nH (Cytochrome P450 (CYP) [3]): 1.0

Molecule: Ro 41-0960
IC50 [4]: 51 nM

Molecule: infliximab
macroscopic Damage Score ([5]; Day 14): reduced the damage score
reduction in colon weight ([5]; Day 14, vs CMC group): significant (P<0.05) reduction in colon weight
reduction in colonic MPO activity ([5]; Day 14, vs CMC group): significantly attenuated the increase in MPO
reduction in colonic TNF-α levels ([5]; Day 14, vs CMC group): significantly attenuated the increase in TNF-α levels
reduction in colonic lesion area (% of the total area measured) ([5]; Day 14, vs CMC group): significantly attenuated the area of injury
attenuation of TNBS-induced fall in body weight (% change of body weight at Day −1) ([5]; over 14 days, vs CMC group): significant on Day 2 and 3
macroscopic injury, colonic MPO and TNF-α levels (TNBS colitis): found to reduce the macroscopic injury, colonic MPO and TNF-α levels
